Results from US20250082614A1, “METHODS OF USING RAD51 INHIBITORS FOR TREATMENT OF PANCREATIC CANCER” (Cyteir Therapeutics, Inc., priority 2019, published 2025).
Read-outs that look alike come from different tables or passages of the source.

How the values were obtained:
[1] = Bi-directional Caco-2 permeability; assay type: in vitro ADME; details: human; for Papp A→B at 90 min / Papp B→A at 90 min: Caco-2, 37° C., up to 90 minutes; for Papp A→B at 90 min: apical to basolateral, read-out: AB Papp (cm/sec × 10^6); for Papp B→A at 90 min: basolateral to apical, read-out: BA Papp (cm/sec × 10^6); for efflux ratio at 90 min: Caco-2 efflux ratio, read-out: BA/AB Ratio
Experimental: Bi-directional Caco-2 permeability was assayed. Caco-2 cells were seeded onto permeable polycarbonate supports and allowed to differentiate for about 3 weeks prior to being used in the assays. The cells were then exposed to the compounds from either the apical or basolateral sides and incubated at 37° C. for up to 90 minutes under light agitation. Compound transport was then measured using LC/MS/MS analysis at 30, 60, and 90 minutes.

[2] = tested on: Daudi cell line (AID positive); experiment: Cell killing assay in the Daudi cell line (AID positive), Cell-Titer Glo; assay type: cell-based; details: Homo sapiens, 168 h; Daudi cells (AID positive), cell death on Day 7
Experimental: Primary screening was a phenotypic screen that utilized the synthetic lethal interaction between AID and RAD51 to identify compounds that were both potent and on target. AID expressing cells are dependent upon RAD51 for survival; inhibiting RAD51 in AID positive cells results in a cytotoxic effect.
The first step was to set up a cell killing assay in the Daudi cell line (AID positive). A 96 well u-bottom plate was prepared by writing the experiment number, plate number, date and initials in the top right corner of the plate lid. With a sterile 300 ml reservoir, and 25 ml serological pipette, evaporation buffer media was pipetted into reservoir in 25 ml increments. Using the liquid handler, 150 ul of evaporation buffer media was pipetted from reservoir into rows A and H, and Columns 1 and 12 of the 96 well u-bottom plate. Cell cultures were counted to obtain the density of cells per ml, and the culture viability. The cell density information was used to obtain 1,000,000 cells from culture using a 5 mL serological pipette into an epi tube. The cell density information from the culture was used to calculate the number of cells and volume of media needed for the assay to seed 1250 cells in 130 ul of media per available culture well in the 96 well u-bottom plate. Rows B through F were used for cells (50 wells in total), with row G left for an empty media control. The calculation was overestimated by 10 mL to account for the dead volume in the 300 ml reservoir. Once the media volume was calculated, the appropriate volume of media was pipetted in 25 mL increments into the 250 mL bottle using a 25 mL serological pipette. The 250 ml bottle was capped tightly, and placed into a 37° C. water bath for 2 minutes. While the culture media was warming, 10 mL of fresh media was pipetted from the 500 mL culture media bottle into a sterile 25 mL reservoir. Using the Eppendorf multichannel pipette, 130 ul of media was pipetted from the 25 mL reservoir into row G of the 96 well u-bottom plate. […]

[3] = Human liver microsome stability; assay type: in vitro ADME; details: human liver microsomes
Experimental: The stability of the claimed compounds was determined in the presences of human liver microsomes. The compounds were incubated with the microsomes at 37° C. for 45 minutes. Samples were analyzed using LC-MS/MS. Data analysis included half-life, clearance rate, and the percentage of hepatic blood flow […] for each of the compounds in the different species.

[4] = Pharmacokinetic (PK) study, plasma by LC-MS; assay type: in vivo, rat; details: po @ 80 mg/kg
Experimental: PK studies in mice were used to determine the fate of the compounds in a whole organism. Rats were treated with the compounds either orally of via IV at the indicated doses and followed for up to 24 hours. Plasma samples were taken at different time points and analyzed by LC-MS.

[5] = Caco-2, apical to basolateral, read-out: AB Recovery %
[6] = Caco-2, basolateral to apical, read-out: BA Recovery %

recovery at 90 min [1, 5]	recovery at 90 min [1, 6]	Papp A→B at 90 min [1]	Papp B→A at 90 min [1]	efflux ratio at 90 min [1]	% QH (percentage of hepatic blood flow) [3]	F (%) @ 5 mg/kg ([4]; Rat Female)	F (%) @ 5 mg/kg ([4]; Rat Male)	SMILES	EC50 [2]
–	–	0.4 ×10⁻⁶ cm/s	41 ×10⁻⁶ cm/s	99.1	–	–	–	CC(C)OC(=O)NC1CCC(c2ncc(-c3ccc(NC(=O)OC[C@@H]4CCCN4C)cc3S(=O)(=O)NC(C)(C)C)s2)CC1 (stereo partly drawn) [Ex. 35, isopropyl ((1S,4r)-4-(5-(2-(N-(tert-butyl)sulfamoyl)-4-(((((S)-1-methylpyrrolidin-2-yl)methoxy)carbonyl)amino)phenyl)thiazol-2-yl)cyclohexyl)carbamate]	100 to 1000 nM
–	–	–	–	–	49.6%	3.31%	2.55%	CC(C)OC(=O)N[C@H]1CC[C@H](c2ncc(-c3ccc(NC(=O)NCc4ccccc4)cc3S(=O)(=O)NC(C)(C)C)s2)CC1 [Ex. 66A, trans-isopropyl N-[4-[5-[4-(benzylcarbamoylamino)-2-(tert-butylsulfamoyl)phenyl]thiazol-2-yl]cyclohexyl]carbamate]	–
–	–	2.2 ×10⁻⁶ cm/s	27.4 ×10⁻⁶ cm/s	12.5	–	–	–	CC(C)OC(=O)N[C@@H]1CCC(c2ncc(-c3ccc(NC(=O)NCc4ccccc4)cc3S(=O)(=O)NC(C)(C)C)s2)NC1 (stereo partly drawn) [Ex. 64]	–
59.8%	90.8%	15.6 ×10⁻⁶ cm/s	13.3 ×10⁻⁶ cm/s	0.9	–	–	–	CC(C)OC(=O)Nc1ccc(-c2cnc(C3CC[C@@H](NC(=O)OC(C)C)CO3)s2)c(S(=O)(=O)NC(C)(C)C)c1 (mixture of isomers) [Ex. 60, trans-isopropyl N-[6-[5-[2-(tert-butylsulfamoyl)-4-(isopropoxycarbonylamino)phenyl]thiazol-2-yl]tetrahydropyran-3-yl]carbamate]	–
61.5%	91.5%	3.1 ×10⁻⁶ cm/s	15 ×10⁻⁶ cm/s	4.8	–	–	–	CC(C)OC(=O)N[C@@H]1CCC(c2ncc(-c3ccc(NC(=O)NCc4ccccc4)cc3S(=O)(=O)NC(C)(C)C)s2)OC1 (mixture of isomers) [Ex. 59, trans-isopropyl N-[6-[5-[4-(benzylcarbamoylamino)-2-(tert-butylsulfamoyl)phenyl]thiazol-2-yl]tetrahydropyran-3-yl]carbamate]	–

Continued, molecule first:

SMILES	recovery at 90 min [1, 5]	recovery at 90 min [1, 6]	Papp A→B at 90 min [1]	Papp B→A at 90 min [1]	efflux ratio at 90 min [1]	% QH (percentage of hepatic blood flow) [3]	F (%) @ 5 mg/kg ([4]; Rat Female)	F (%) @ 5 mg/kg ([4]; Rat Male)	EC50 [2]
CC(C)OC(=O)N[C@H]1CC[C@H](c2ncc(-c3ccc(NC(=O)NCc4ccncc4)cc3S(=O)(=O)NC(C)(C)C)s2)CC1 [Ex. 22, trans-isopropyl N-[4-[5-[2-(tert-butylsulfamoyl)-4-(4-pyridylmethylcarbamoylamino)phenyl]thiazol-2-yl]cyclohexyl]carbamate]	83.1%	89%	1.1 ×10⁻⁶ cm/s	21 ×10⁻⁶ cm/s	18.7	–	–	–	–
CC(C)OC(=O)NC1CCC(c2ncc(-c3ccc(NC(=O)NCc4ncccc4F)cc3S(=O)(=O)NC(C)(C)C)s2)CC1 (stereo not drawn) [Ex. 31, isopropyl ((1r,4r)-4-(5-(2-(N-(tert-butyl)sulfamoyl)-4-(3-((3-fluoropyridin-2-yl)methyl)ureido)phenyl)thiazol-2-yl)cyclohexyl)carbamate]	–	–	12.8 ×10⁻⁶ cm/s	13.6 ×10⁻⁶ cm/s	1.1	77.3%	2.77%	1.49%	–
CC(C)OC(=O)NC1CCC(c2ncc(-c3ccc(NC(=O)N[C@H](C)c4ccccn4)cc3S(=O)(=O)NC(C)(C)C)s2)CC1 (stereo partly drawn) [Ex. 30, isopropyl ((1R,4r)-4-(5-(2-(N-(tert-butyl)sulfamoyl)-4-(3-((R)-1-(pyridin-2-yl)ethyl)ureido)phenyl)thiazol-2-yl)cyclohexyl)carbamate]	–	–	11.5 ×10⁻⁶ cm/s	15.7 ×10⁻⁶ cm/s	1.4	–	–	–	–
CC(C)OC(=O)NC1CCC(c2ncc(-c3ccc(NC(=O)NCc4ccccc4F)cc3S(=O)(=O)NC(C)(C)C)s2)CC1 (stereo not drawn) [Ex. 28, isopropyl ((1r,4r)-4-(5-(2-(N-(tert-butyl)sulfamoyl)-4-(3-(2-fluorobenzyl)ureido)phenyl)thiazol-2-yl)cyclohexyl)carbamate]	–	–	1.9 ×10⁻⁶ cm/s	3.3 ×10⁻⁶ cm/s	1.7	–	–	–	–
CC(C)OC(=O)NC1CCC(c2ncc(-c3ccc(NC(=O)NCc4ccccn4)cc3S(=O)(=O)NC(C)(C)C)s2)CC1 (stereo not drawn) [Ex. 29, isopropyl ((1r,4r)-4-(5-(2-(N-(tert-butyl)sulfamoyl)-4-(3-(pyridin-2-ylmethyl)ureido)phenyl)thiazol-2-yl)cyclohexyl)carbamate]	–	–	10.9 ×10⁻⁶ cm/s	24.1 ×10⁻⁶ cm/s	2.2	78.8%	8.39%	3.69%	–
CC(C)OC(=O)Nc1ccc(-c2cnc(C3CCC(NC(=O)OC[C@@H]4CCCN4C)CC3)s2)c(S(=O)(=O)NC(C)(C)C)c1 (stereo partly drawn) [Ex. 9, isopropyl (3-(N-(tert-butyl)sulfamoyl)-4-(2-((1S,4r)-4-(((((S)-1-methylpyrrolidin-2-yl)methoxy)carbonyl)amino)cyclohexyl)thiazol-5-yl)phenyl)carbamate]	–	–	–	–	–	–	–	–	100 to 1000 nM
CC(C)OC(=O)NC1CCC(c2ncc(-c3ccc(NC(=O)OC[C@H]4CCCN4C)cc3S(=O)(=O)NC(C)(C)C)s2)CC1 (stereo partly drawn) [Ex. 34, isopropyl ((1R,4r)-4-(5-(2-(N-(tert-butyl)sulfamoyl)-4-(((((R)-1-methylpyrrolidin-2-yl)methoxy)carbonyl)amino)phenyl)thiazol-2-yl)cyclohexyl)carbamate]	–	–	0.4 ×10⁻⁶ cm/s	45.2 ×10⁻⁶ cm/s	104	–	–	–	100 to 1000 nM
CC(C)NC(=O)OC1CCC(c2ncc(-c3ccc(NC(=O)NCc4ccccc4)cc3S(=O)(=O)NC(C)(C)C)s2)CC1 (stereo not drawn) [Ex. 21]	–	–	3.6 ×10⁻⁶ cm/s	10.7 ×10⁻⁶ cm/s	3	–	–	–	–
CC(C)OC(=O)NC1CCC(c2ncc(-c3ccc(NC(=O)NCc4cccc(F)c4)cc3S(=O)(=O)NC(C)(C)C)s2)CC1 (stereo not drawn) [Ex. 27, isopropyl ((1r,4r)-4-(5-(2-(N-(tert-butyl)sulfamoyl)-4-(3-(3-fluorobenzyl)ureido)phenyl)thiazol-2-yl)cyclohexyl)carbamate]	–	–	0.7 ×10⁻⁶ cm/s	0.5 ×10⁻⁶ cm/s	0.7	–	–	–	–
